Experimental data: patent US20040259942A1, “Modulation of stat activity” (priority 2001, published 2004)
“Also recorded” adds a separate entry of the source.

Legend:
[1] = system: autocrine factor release from BR293 cells; assay: Autocrine factor release: CM from pre-treated serum-stimulated cells tested for STAT3 phosphorylation; assay type: cell-based, human; conditions: 100 μM (FIG. 18d)
Experimental: OdDHL blocks the autocrine release of mitogens from BC cells (a) Equal numbers of BR293 cells were cultured in MEM alone, serum-free MEM conditioned by serum-stimulated BR293 cells for 2 hours, or the same supplemented with 5% FCS, as indicated. After 24 hours [^3H]-thymidine was added to the medium. After a further 18 hours, cells were harvested and analysed for incorporation of ^3H. Error bars denote SD (n=4). (b) BR293 cells were serum-starved (lane 1) or starved and stimulated with 10% FCS for 2 hours directly (lane 2) or after pretreatment with α-amanitin (1004/ml) for 2.5 hours (lane 3) or actinomycin D ([…]) for 10 min (lane 4). […] (c) BR293 cells were serum-starved (lane 1) or starved and stimulated with 10% FCS alone for 2 hours (lane 2), with serum-free CM alone for 15 min (lane 5) or in the presence of increasing 100 μM AG490 (lanes 3 and 6) or 100 μM OdDHL (lanes 4 and 7). Cell lysates were prepared and analysed by Western blotting as described in the legend to FIG. 1a. (d) BR293 cells were stimulated with 10% FCS in the presence of 100 μM OHHL (lane 1) or OdDHL (lane 2). After 2 hours the cells were washed and incubated for a further 2 hours in serum-free MEM. […] Lysates were prepared from all the cells and analysed by Western blotting as described in the legend to FIG. 1a.

MDA-MB-468 cells = assay: Cell proliferation assay (cell counting); assay type: cell-based, human; conditions: over a 48-hour period
Experimental: Equal numbers of BR293 and MDA-MB-468 cells were seeded in MEM containing 10% FCS into 10 cm dishes. […]. For the 48 time points, fresh medium containing the appropriate inhibitor was applied to the cells after 24 hours. Controls were allowed to grow for 48 hours in the absence of inhibitor. Thereafter, all the cells were washed twice with ice cold PBS, harvested and counted under a phase-contrast microscope. Values are expressed as averages+S.D. (n=3).
(§1) Equal numbers of BR293, MCF-10F, MCF-7, MDA-MB-468, HKEK293 and COS1 cells were seeded in the appropriate growth medium into 10 cm dishes. Cells were allowed to grow in the presence of various concentrations of OdDHL or OHHL for 24 or 48 hours. For the 48-hour time points, fresh medium containing the appropriate inhibitor was applied to the cells after 24 hours. Controls were allowed to grow for 48 hours in the absence of inhibitor. Thereafter, all the cells were washed twice with ice cold PBS, harvested and counted under a phase-contrast microscope. Values are expressed as averages ±S.D. (n=3).

HEK293 cells = assay: Cell proliferation assay (cell counting); assay type: cell-based, human; conditions: cells with constitutive STAT3 activity; 48 hours
Experimental: as §1

MCF-7 cells = assay: Cell proliferation assay (cell counting); assay type: cell-based, human; conditions: over a 48-hour period
Experimental: as §1

MCF-10F cells = assay: Cell proliferation assay (cell counting); assay type: cell-based, human; conditions: non-tumorigenic breast epithelial cells; 48 hours
Experimental: Breast cancer cell lines (BR293, MCF-7 and MDA-MB-468) were maintained in Minimum Essential Medium Eagle (MEM, Sigma) supplemented with 10% foetal calf serum (FCS), 1% MEM non-essential amino acids, 1% glutamine and 1% penicillin-streptomycin at 37° C. under 5% CO2. […] These cell lines are well-known, and widely available to persons in the field. In particular, the following lines are deposited with the American Type Culture Collection (ATTC) with the following identifying codes:
as §1

COS1 cells = assay: Cell proliferation assay (cell counting); assay type: cell-based, simian; conditions: cells expressing low levels of STAT proteins; 48 hours
Experimental: as §1

[2] = system: poly ADP-ribose polymerase (PARP); assay: PARP cleavage by Western blotting; assay type: cell-based, human; conditions: 100 μM, 18 hours
Experimental: OdDHL induces apoptosis of BC cells (a) MCF-7 cells were cultured in full medium alone or in the presence of 1001M OdDHL or 100 μM OHHL. After 18 hours cells were fixed, stained with DAPI and examined by confocal microscopy. Left-hand panels show DAPI, right-hand panels show the corresponding phase contrast and middle panels the image overlays. (b) MDA-MB-468 cells were cultured in full medium alone or in the presence of 100 μM OdDHL or 100 μM OHHL. After 18 hours cells were fixed, stained and examined as in (a). (c) BR293, MCF-7 and MDA-MD-468 cells were cultured in full medium alone (lanes 1, 3, 5) or in the presence of 100 μM OdDHL (lanes 2, 4, 6) or 400 μM etoposide (lane 7). After 18 hours cells were lysed and analysed for PARP cleavage by Western blotting with an anti-PARP antibody. Full length PARP is labelled and the lower arrow indicates the major caspase cleavage fragment.

p38^MAPK = assay: p38 MAPK phosphorylation in anisomycin-treated cells (Western blotting); assay type: cell-based, human; conditions: BR293 cells treated with anisomycin
Experimental: ERKs are unaffected by OdDHL (a) BR293 cells were serum-starved (lane 1) or starved and stimulated with TPA for 30 min alone (lane 2) or in the presence of increasing concentrations of OdDHL (lanes 3-6) or 100 μM OHHL (lane 7). Cell lysates were prepared and analysed by Western blotting for ERK phosphorylation with an antibody specific for phospho-ERK½ (upper panel) and for ERK content with an antibody against ERKs (lower panel). (b) BR293 cells were serum-starved (lane 1) or starved and stimulated with Anisomycin for 30 min alone (lane 2) or in the presence of increasing concentrations of OdDHL (lanes 3-6) or 100 μM OHHL (lane 7). Cell lysates were prepared and analysed by Western blotting for JNK/SAPK phosphorylation with an antibody specific for phospho-JNKs (upper panel) and for SAPK/JNK content with an antibody against JNKs (lower panel). (c) BR293 cells were treated as described in (b) and lysates were analysed by Western blotting for p38^MAPK phosphorylation with an antibody specific for phospho-p38 (upper panel) and for p38 content with an antibody against p38 (lower panel).

What does the source list for `CCCCCCCCCC(=O)CC(=O)N[C@H]1CCOC1=O` [OdDHL, N-(3-oxo-dodecanoyl)-L-homoserine lactone]?
STAT3 phosphorylation induced by CM from serum-stimulated cells pre-treated with the compound [1]: unable to stimulate STAT3 phosphorylation; also recorded: failed to induce STAT3 phosphorylation; inhibition of proliferation (MDA-MB-468 cells): 70%-80%; growth sensitivity to treatment (HEK293 cells): sensitive; inhibition of proliferation (MCF-7 cells): 70%-80%; effect on proliferation (MCF-10F cells): slight; effect on proliferation (COS1 cells): unaffected; PARP cleavage ([2]; BR293 cells): characteristic cleavage fragment was detected; PARP cleavage ([2]; MCF-7 cells): induced PARP cleavage; PARP cleavage ([2]; MDA-MB-468 cells, compared with 400 μM etoposide): to the same extent as etoposide; p38^MAPK phosphorylation (p38^MAPK): modest but reproducible inhibition
